# Like-named read-outs stand apart in the source and are kept apart here.
# Experiments:
# [1] = MTT cytotoxicity (PDT and dark), RAW264.7 normal cell line; assay type: cell-based, Murine; details: mouse, RAW264.7 cells (normal macrophage), RAW264.7 normal macrophage
# From the text: B16F10 (KCLB80008), MIA PaCa-2 (KCLB21420), PANC-1 (KCLB21469), HT-29 (KCLB30038), AsPC-1 (KCLB21682), and Raw 264.7 (KCLB40071) cells were procured from the Korean Cell Line Bank (KCLB, Seoul, Republic of Korea). AsPC-1 and RAW264.7 were thawed and maintained in RPMI-1640 media (Life Technologies corporation, Carlsbad, CA, USA) supplemented with 10% fetal bovine serum (Life Technologies corporation, USA) and 1% penicillin and streptomycin (Life Technologies corporation, USA), while MIA PaCa-2, PANC-1, HT-29, and B16F10 cell lines were cultured in DMEM (Life technologies corporation, USA) containing 10% fetal bovine serum and 1% penicillin and streptomycin. All the cells were cultured at 37 °C in a 5% CO2 incubator.
# After seeding B16F10 or MIA PaCa-2 at a density of 5 × 10^3 cells/well and PANC-1, HT-29, or AsPC-1 at a density of 1 × 10^4 cells/well in 96-well plates, the cells were incubated overnight at 37 °C in a CO2 incubator. The cells were exposed to different doses of either chlorin e6 or rhodin g7 7^1-ethyl ester (0, 2.5, 5, 10, 20, 40, and 80 µM) for 3 h. After the incubation, the cells were either subjected to a 660 nm laser with a power density of 50 mW (0.5 J/cm^2) or not and were further incubated for 24 h at 37 °C. Moreover, the MTT assay was used to analyze the cell viability. The absorbance values of 540 nm were then measured using a microplate reader (Multiskan GO, Thermo Fisher Scientific, Oy, Ratastie 2, FI-01620 Vantaa, Finland).
# ICR mice [2] = assay: Biodistribution, ex vivo organ fluorescence; assay type: in vivo; details: 2.5 mg/kg intravenous
# Procedure: The animal study was approved by the Institutional Animal Care and Use Committee of the Dongsung Cancer Center under protocol IACUC # ds0022010107-2. The experiments were carried out in compliance with the ARRIVE guidelines. Male ICR mice (4 weeks old, OrientBio, Seongnam City, Republic of Korea) were used for the biodistribution study. The biodistribution analysis for rhodin g7 7^1-ethyl ester was calculated using tissue fluorescence. ICR mice (n = 7) were injected with or without rhodin g7 7^1-ethyl ester (2.5 mg/kg) intravenously. After the administration of rhodin g7 7^1-ethyl ester for 0, 24, 48, 72, 96, and 120 h, the mice were sacrificed, and their organs (kidney, spleen, heart, lungs, liver, skin, and pancreas) were resected. Fluorescence imaging was used to determine the ex vivo organ distributions of rhodin g7 7^1-ethyl ester utilizing the FOBI imaging system (Neo-Science, Suwon, Republic of Korea). For the rhodin g7 7^1-ethyl ester extraction, the organ tissues were then mixed with lysis buffer, homogenized in a tissue homogenizer, and centrifuged at 9000 rpm for 15 min. The rhodin g7 7^1-ethyl ester content in the supernatant was then evaluated using a Spark Multimode Microplate Reader (Tecan Trading AG, Männedorf, Switzerland) spectrophotometrically at 660 nm. The fluorescence intensity was adjusted to the tissue weight.
# [3] = Singlet oxygen photogeneration (DPBF quenching); details: for change of DPBF absorbance at higher doses: 5 and 10 µM
# Procedure: Singlet oxygen photoregeneration was carried out using 1, 3-diphenylisobenzofuran (DPBF) in DMSO. DPBF is a selective ^1O2 acceptor that reacts with ^1O2. The sample solutions of DPBF (50 μM) which contained DPBF only (50 μM, as a control), MB (1, 5, and 10 μM), chlorin e6 (1, 5, and 10 μM), and rhodin g7 7^1-ethyl ester (1, 5, and 10 μM) were prepared under dark conditions. All of the samples were placed in a 96-well plate, which was covered with aluminum foil. The samples were then irradiated (660 nm, 50 mW, 0.5 J/cm^2) for 1 min and 40 s, and after irradiation, the visible spectra of the sample solutions were measured spectrophotometrically. The normalized absorbance of DPBF at 418 nm was measured in these samples. The ^1O2 photo-generation activities of MB, chlorin e6, and rhodin g7 7^1-ethyl ester can be compared with the different absorbance decay of each sample relative to the DPBF control sample.
# MIA-PaCa-2 cells = assay: Detection of ROS with DCFH-DA after PDT; assay type: cell-based, Human; details: for ROS level after PDT (DCFH-DA): MIA-PaCa-2, 1, 5, 10, 20, 40, and 80 μM, 3 h, laser
# Procedure: MIA-PaCa-2 cells (density: 5 × 10^3 cells/well) were seeded onto 96-well plates and incubated in a complete medium for 24 h at 37 °C. Then, the medium was replaced with a fresh culture medium containing chlorin e6 or rhodin g7 7^1-ethyl ester at different concentrations (1, 5, 10, 20, 40, and 80 μM) and then incubated for 3 h at 37 °C. After incubation, the cells were washed three times with PBS, and the cells were irradiated using a 630 nm laser at a power of 100 mW/cm^2 for 300 s. After irradiation, a fresh culture medium containing 20 μM dichlorodihydrofluorescin diacetate (DCFH-DA) was added, and the cells were incubated for another 20 min. Fluorescence detection of DCFH-DA was performed via the fluorescence microplate reader using the Spark Multimode Microplate Reader (Tecan Trading AG, Männedorf, Switzerland).
# ICR mice [4] = system: ICR mice; parameters: method as in PMID 30609768; details: chlorin e6, greatly declined at 24 h; cited from earlier work
# [5] = 660 nm laser 0.5 J/cm^2, MTT after 24 h, read-out: IC50, PDT cytotoxicity
# [6] = no illumination, MTT after 24 h, read-out: IC50, dark cytotoxicity
smiles,measurement,setting,value
C=Cc1c(C)c2cc3nc(c(CC(=O)O)c4[nH]c(cc5nc(cc1[nH]2)C(C(=O)OCC)=C5CC)c(C)c4C(=O)O)[C@@H](CCC(=O)O)[C@@H]3C [rhodin g7 7^1-ethyl ester],IC50,[1]; [5],55.2 µM
same,IC50,[1]; [6],466 µM
same,"time of peak fluorescence intensity post injection, all organs",ICR mice [2]; 0-120 h,0 h
same,organ with greatest signal intensity (predominant accumulation),ICR mice [2]; ex vivo FLI of excised organs,liver
same,more singlet oxygen compared to chlorin e6 alone,[3]; 1 µM,11.12%
same,change of DPBF absorbance at higher doses,[3],large increase in DPBF absorbance
same,ROS level after PDT (DCFH-DA),MIA-PaCa-2 cells,dose-dependent increase in ROS
same,ROS production compared to chlorin e6-PDT,"MIA-PaCa-2 cells; MIA-PaCa-2, all concentrations (1-80 μM)",likely to produce more ROS than chlorin e6-PDT
C=Cc1c(C)c2cc3nc(c(CC(=O)O)c4[nH]c(cc5nc(cc1[nH]2)C(C)=C5CC)c(C)c4C(=O)O)[C@@H](CCC(=O)O)[C@@H]3C [chlorin e6],IC50,[1]; [5],45.4 µM
same,IC50,[1]; [6],456 µM
same,change of DPBF absorbance at higher doses,[3],large increase in DPBF absorbance
same,ROS level after PDT (DCFH-DA),MIA-PaCa-2 cells,dose-dependent increase in ROS
same,time of maximum fluorescence intensity post injection,ICR mice [4],0 h

# Reference: article PMC11240924, “Isolation, Identification, and Biological Activities of a New Chlorin e6 Derivative” (International Journal of Molecular Sciences, 2024)
